Measurements as given in patent publication US20210130411A1, “CYCLIC HEXAPEPTIDES COMPOUNDS WITH ANTI-MALARIAL ACTIVITY” (priority 2018, published 2021).
Where two headings read alike, the source gives them in different places. Where a SMILES comes first, the peptide text is derived from it. [ ]: non-standard residue; d: D form. The star is where a group is joined. Trt = c1ccc(C(c2ccccc2)(c2ccccc2)*)cc1; Sar = CNCC(=O)O; tBu = CC(C)(C)*

Tests used:
[1] = system: P. falciparum K1 (chloroquine-resistant strain); experiment: microbe, parasite or virus in culture
Experimental: For the in vitro study of the antimalarial activity against P. falciparum K1, this strain originating from Thailand that is resistant to chloroquine and pyrimethamine but sensitive to mefloquine was used. The cultures are naturally asynchronous (65-75% ring stage) and are maintained in continuous log phase growth in RPM11640 medium supplemented with 5% washed human A+erythrocytes, 25 mM HEPES, […] NaHCO3, and AlbuMAXII (lipid-rich bovine serum albumin) (GIBCO, Grand Island, N.Y.) (CM). All cultures and assays are conducted at 37° C. under an atmosphere of 5% CO2 and 5% 02, with a balance of N2.
For drug sensitivity assays, tock drug solutions are prepared in 100% DMSO (dimethylsulfoxide) at 20 mM. The compound is further diluted to the appropriate concentration using complete medium RPM11640 supplemented with 15 nM cold hypoxanthine and AlbuMAXII. Assays are performed in sterile 96-well microtitre plates, each plate contains […] of parasite culture (0.5% parasitemia, 2.5% hematocrit). Each drug is tested in triplicate and parasite growth is compared to control and blank (uninfected erythrocytes) wells. After 24 h of incubation at 37° C., 3.7 Bq of [3H]hypoxanthine is added to each well. Cultures are incubated for a further 24 h before they are harvested onto glass-fiber filter mats. The radioactivity is counted using a Wallac Microbeta 1450 scintillation counter. […] The percentage inhibition is calculated from comparison of blank and control wells, and EC50 values are calculated using Prism™. Screen. The K1 line is used. The compound is diluted threefold over 12 different concentrations with an appropriate starting concentration. The EC50 is determined by a sigmoidal dose-response analysis using Prism™. For each assay, the EC50 value for the parasite line is determined against the known antimalarials chloroquine and artesunate, plus other standard compounds appropriate for the assay.
were tested in vitro against the intraerythrocytic form of the parasite Plasmodium falciparum K1 (chloroquine-resistant strain) and Plasmodium falciparum 31D7 (chloroquine-sensitive strain). The selectivity index (SI) was determined as the ration between EC50 against murine macrophages or HepG2 cells and the EC50 against P. falciparum.

Plasmodium sp. = settings: background statement, strain not stated; cited from earlier work
P. berghei = experiment: Anti-malarial activity in vivo in mice inoculated with P. berghei; settings: 50 mg/Kg oral, 3 consecutive days
[2] = system: Plasmodium falciparum 3D7 (chloroquine-sensitive strain); experiment: microbe, parasite or virus in culture; assay type: cell-based
Experimental: For the in vitro study of the antimalarial activity against P. falciparum D7, two stock solutions were prepared: solution A (dilution of powder sample) at 20 mM and solution B at 1 mM (made by dilution of solution A). Next, the compounds were diluted 100-fold (drug solution=10 μM), then, suitable volume of drug solution was transferred in the SYBR GREEN assay plate (final concentration=10-0.15 μM). However, due to the high potency of the samples, the initial concentration was reduced in order to determine the EC50 values. The assay condition included: hematocrit at 2%, initial parasitemia 0.5% and artesunate and pyrimethamine were used as positive control. The fluorescence of each well is measured. The EC50 value of each compound was assessed in at least two independent experiments.
(§1) were tested in vitro against the intraerythrocytic form of the parasite Plasmodium falciparum K1 (chloroquine-resistant strain) and Plasmodium falciparum 31D7 (chloroquine-sensitive strain). The selectivity index (SI) was determined as the ration between EC50 against murine macrophages or HepG2 cells and the EC50 against P. falciparum. In the following Table 1 is shown the results of the EC50 obtained for each of the tested compounds against P. falciparum K1 (P. f. K1) and P. falciparum 3D7 (P. f. 3D7) and the SI calculated.

[3] = system: murine macrophages or HepG2 cells; experiment: Selectivity index: EC50 against murine macrophages or HepG2 cells over EC50 against P. falciparum; assay type: cell-based; settings: ratio of EC50 against murine macrophages or HepG2 cells to EC50 against P. falciparum
Experimental: as §1

[4] = Plasma pharmacokinetics after single oral administration; assay type: in vivo, male Swiss Albino mice
Experimental: The objective of this study was to investigate the plasma pharmacokinetics of the compound CF-88 in male Swiss Albino mice following a single oral administration. Nine animals were used in this study as Group 1 (PO: 50 mg/kg). Animals were administered with solution formulation of CF-88 in 3% DMSO and RPMI medium via oral route at 50 mg/kg. The blood samples were collected from set of three mice at each time point in labeled micro centrifuge tube containing K2EDTA solution as anticoagulant at 0.25, 0.5, 1, 2, 4, 6, 8, 12 and 24 hr. Plasma samples were separated by centrifugation of whole blood and stored below −70±10° C. until bioanalysis. All samples were processed for analysis by protein precipitation using acetonitrile and analyzed with fit-for-purpose LC-MS/MS method (LLOQ=5.16 ng/mL). Pharmacokinetic parameters were calculated using the non-compartmental analysis tool of Phoenix WinNonlin® (Version 7.0).
For the preparation of the oral formulation accurately weighed 19.93 mg of compound for PO dosing was added in a labeled bottle. The volume 0.112 mL of DMSO was added and vortexed. The volume 3.617 mL of RPMI medium was added and vortexed. The final formulation (5 mg/mL) was vortexed for 2 minutes to get finely suspended formulation.
After preparation of formulations, a volume of 200 μL was aliquoted for analysis. […] Formulations were prepared freshly prior to dosing.
Blood samples (approximately 60 μL) were collected from retro-orbital plexus of three mice at 0.25, 0.5, 1, 2, 4, 6, 8, 12 and 24 hr. Samples were collected into labeled micro-tubes, containing K2EDTA solution (20% K2EDTA solution) as an anticoagulant. Plasma was immediately harvested from the blood by centrifugation at 4000 rpm for 10 min at 4±2° C. and stored below −70° C. until bioanalysis.

P. falciparum 3D7 strain = experiment: Killing rates assay, P. falciparum 3D7 intraerythrocytic form; assay type: cell-based, Plasmodium falciparum
Experimental: The assay was performed in P. falciparum 3D7 strain in its intraerythrocytic form. […] Each compound was renewed (washing the parasites and adding culture media and the compound again) after the first 24 hours of treatment.

[5] = Plasmodium falciparum, K1, read-out: EC50 P. f. K1
[6] = read-out: EC50 P. f. K1, intraerythrocytic form, chloroquine-resistant strain
[7] = intraerythrocytic form, chloroquine-sensitive strain, read-out: EC50 P. f. 3D7
[8] = male, Swiss Albino, mouse, in vivo, po, 50 mg/kg
[9] = male, Swiss Albino, mouse, plasma, PO 50 mg/kg, 12 hrs after administration, read-out: plasma concentration at 12 hrs
[10] = 0 hrs of treatment, compound at 10×EC50
[11] = 24 hrs of treatment, compound at 10×EC50 (CF89 500 nM, SP79 30 nM)
[12] = 48 hrs of treatment, compound renewed after 24 hrs, 10×EC50

C[C@@H]1CC[C@H]2[C@@H](C)C(=O)O[C@@H]3O[C@@]4(C)CC[C@@H]1[C@]32OO4 [Artemisinine, reference compound]
EC50 [1, 5]: 20 nM | EC50 (Plasmodium sp.): 20 nM

CN1CC(=O)N[C@@H](CSC(c2ccccc2)(c2ccccc2)c2ccccc2)C(=O)N(C)CC(=O)N[C@@H](CSC(c2ccccc2)(c2ccccc2)c2ccccc2)C(=O)N(C)CC(=O)N[C@@H](CCC(=O)O)C1=O [CFfs49.4, Cycle-NMe-Gly-L-Cys(Trt)-NMe-Gly-L-Cys(Trt)-NMe-Gly-L-Glu] (cyclo(C(Trt)[Sar]C(Trt)[Sar]E[Sar]))
Days of survival (P. berghei): 23 ± 4 days | Parasitemia (P. berghei; Day 5): 1.1 ± 0.2 | Parasitemia (P. berghei; Day 7): 1.6 ± 0.2 | Parasitemia (reduction %) (P. berghei; Day 7): (46 ± 6%) | Parasitemia (P. berghei; Day 9): 4.8 ± 0.5 | Parasitemia (reduction %) (P. berghei; Day 9): (50 ± 4%) | EC50 [1, 6]: 0.2 nM | EC50 [2, 7]: 12 nM | SI [3]: >20000

C[C@@H](OC(C)(C)C)[C@@H]1NC(=O)CN(C)C(=O)[C@H](CSC(c2ccccc2)(c2ccccc2)c2ccccc2)NC(=O)CNC(=O)[C@H](CSC(c2ccccc2)(c2ccccc2)c2ccccc2)NC(=O)CN(C)C1=O [CF88, Cycle-NMe-Gly-L-Thr(^t-Bu)-NMe-Gly-L-Cys(Trt)-Gly-L-Cys(Trt)] (cyclo(C(Trt)GC(Trt)[Sar]T(tBu)[Sar]))
Days of survival (P. berghei): 25 ± 7 days | Parasitemia (P. berghei; Day 5): 0.9 ± 0.7 | Parasitemia (P. berghei; Day 7): 1.7 ± 0.3 | Parasitemia (reduction %) (P. berghei; Day 7): (46 ± 10%) | Parasitemia (P. berghei; Day 9): 6 ± 1 | Parasitemia (reduction %) (P. berghei; Day 9): (33 ± 10%) | EC90 ([1]; against P. falciparum K1): 1 nM | EC50 [1, 6]: 0.008 nM | EC50 [2, 7]: 0.25 nM | SI [3]: >1 × 10^6 | clinical signs after oral administration ([4]; PO 50 mg/kg single dose): all animals were normal without any clinical signs | t1/2 ([4]; PO 50 mg/kg, plasma, 4, 6, 8 and 12 hr time points considered (r^2 = 0.7325)): 4.93 h | detected in plasma up to ([4]; PO 50 mg/kg, time after administration): 12 h | detection in plasma at 24 hrs ([4]; PO 50 mg/kg, LLOQ 5.16 ng/mL): no detection | AUCinf [4, 8]: 390.71 | AUClast [4, 8]: 314.79 | Cmax [4, 8]: 61.13 ng/mL | tmax [4, 8]: 2 h | level at 12 h [4, 9]: 10.8 ng/mL | level at time molar at 12 h [4, 9]: 10 nM

CCc1nc(N)nc(N)c1-c1ccc(Cl)cc1 [Pyrimethamine]
Survival % (P. falciparum 3D7 strain; [10]): 100% | Survival % (P. falciparum 3D7 strain; [11]): 53.52% | Survival % (P. falciparum 3D7 strain; [12]): 9.59% | EC50 ([2]; Plasmodium falciparum, 3D7, intraerythrocytic form, chloroquine-sensitive strain, read-out: EC50 P. f. 3D7): 31 nM

COC(=O)CC[C@@H]1NC(=O)CN(C)C(=O)[C@H](CSC(c2ccccc2)(c2ccccc2)c2ccccc2)NC(=O)CN(C)C(=O)[C@H](CSC(c2ccccc2)(c2ccccc2)c2ccccc2)NC(=O)CN(C)C1=O [CFfs49.5] (cyclo(C(Trt)[Sar]C(Trt)[Sar]E(OMe)[Sar]))
EC50 [2, 7]: 5.2 nM | SI [3]: >40000

O=C1C(O)=C([C@H]2CC[C@H](c3ccc(Cl)cc3)CC2)C(=O)c2ccccc21 [Atovaquone]
Survival % (P. falciparum 3D7 strain; [10]): 100% | Survival % (P. falciparum 3D7 strain; [11]): 56.55% | Survival % (P. falciparum 3D7 strain; [12]): 32.02%

C[C@H]1[C@H](OC(=O)CCC(=O)O)O[C@@H]2O[C@@]3(C)CC[C@H]4[C@H](C)CC[C@@H]1[C@@]24OO3 [Artesunate]
EC50 [1, 5]: 3 nM | Survival % (P. falciparum 3D7 strain; [10]): 100% | Survival % (P. falciparum 3D7 strain; [11]): 10.01% | Survival % (P. falciparum 3D7 strain; [12]): 8.59% | EC50 ([2]; Plasmodium falciparum, 3D7, read-out: EC50 P. f. 3D7): 5 nM | EC50 (Plasmodium sp.): 5 nM

CCN(CC)CCCC(C)Nc1ccnc2cc(Cl)ccc12 (centres unmarked) [Chloroquine, reference compound]
Days of survival (P. berghei): >30 days | Parasitemia (reduction %) (P. berghei; Day 5 (96 hrs after infection)): (100%) | Parasitemia (P. berghei; Day 5): 0 | Parasitemia (P. berghei; Day 7): 0 | Parasitemia (reduction %) (P. berghei; Day 7): (100%) | Parasitemia (P. berghei; Day 9): 0 | Parasitemia (reduction %) (P. berghei; Day 9): (100%) | EC50 [1, 5]: 470 nM | Survival % (P. falciparum 3D7 strain; [10]): 100% | Survival % (P. falciparum 3D7 strain; [11]): 14.13% | Survival % (P. falciparum 3D7 strain; [12]): 7.04%

C[C@@H](OC(C)(C)C)[C@@H]1NC(=O)CNC(=O)[C@H](CSC(c2ccccc2)(c2ccccc2)c2ccccc2)NC(=O)CNC(=O)[C@H](CSC(c2ccccc2)(c2ccccc2)c2ccccc2)NC(=O)CN(C)C1=O [CF90, Cycle-L-Thr(^tBu)-NMe-Gly-L-Cys(Trt)-Gly-L-Cys(Trt)-Gly] (cyclo(C(Trt)GC(Trt)GT(tBu)[Sar]))
EC50 [1, 6]: 0.13 nM | EC50 [2, 7]: 1.4 nM | SI [3]: >1 × 10^5

CN1CC(=O)N[C@@H](CSC(c2ccccc2)(c2ccccc2)c2ccccc2)C(=O)N(C)CC(=O)N[C@@H](CSC(c2ccccc2)(c2ccccc2)c2ccccc2)C(=O)N(C)CC(=O)N[C@@H](COC(C)(C)C)C1=O [CF87, Cycle-NMe-Gly-L-Cys(Trt)-NMe-Gly-L-Ser(^t-Bu)-NMe-Gly-L-Cys(Trt)] (cyclo(C(Trt)[Sar]C(Trt)[Sar]S(tBu)[Sar]))
EC50 ([2]; 3D7 (chloroquine-sensitive strain)): 3.8 nM | SI [3]: > 12500
